Assay results taken from patent US7625917B2, “Thiolesters and uses thereof” (priority 1998, dated 2009).
“Also recorded” adds a separate entry of the source. Read-outs that look alike come from different tables or passages of the source.

Legend:
NCp7 = NCp7 (Human immunodeficiency virus type 1 group M subtype B, UniProt P03347); test: NCp7 oligonucleotide binding EMSA; assay type: biochemical, HIV-1; details: for concentration at which NCp7-oligonucleotide complex formation was inhibited: EMSA
Description: Zinc finger reactivity was measured using a Zn specific fluorochrome, TSQ, N-(6-methoxy-8-quinolyl)-p-toluenesulfonamide, assay or a Trp37 zinc finger fluorescence assay. Fluorescent measurements of the Trp37 residue in the C-terminal finger of recombinant HIV-1 NCp7 protein were performed as described by Rice (1995) Science 270:1194-1197; Rice (1997) Antimicrob. Agents Chemother. 41:419-426. Measurement of Zn ejection from both fingers was measured using the Zn-selective fluorchrome probe TSQ (Molecular Probes, Eugene Oreg.) as described by Rice (1996) J. Med. Chem 39:3606-3616. Measurement of the ability of NCp7 to bind to a DNA oligomer, a 44 mer: GGCGACTGGTGAGTACGCCAAAAATTTTGACTAGCGGAGGCTAG (SEQ ID NO:1), analogous to the HIV-1 RNA packaging site was carried out as described by Huang (1998) J. Med. Chem. 41:1371-1381, see also, Rossio (1998) HIV Pathogenesis and Treatment: Keystone Symposium on Molecular and Cellular Biology, Abstract # 4082. Briefly, 50 nM NCp7 was treated with test compounds for 1 hour at RT in […] buffer containing 10% glycerol and 50 mM Tris-HCl (pH 7.5). Labeled oligomer (0.1 picomole, end labeled [^32P] was added in an equal volume of buffer containing 10% glycerol, 50 mM Tris-HCl (pH 7.5), 400 mM KCl and 40 mM MgCl2. The reaction was continued for 15 min at room temperature, and a total of […] (or ¼ of the total reaction volume) was separated on nondenaturing 4.5% polyacrylamide gels in 0.5× Tris-Borate electrophoresis buffer. NCp7-oligomer complexes were visualized by autoradiography.
Interaction of zinc finger inhibitors with NCp7 can result in loss of protein structure and their ability to specifically bind oligonucleotides representing the HIV-1ψpackaging site (Huang (1998) supra; Tummino (1997) Antimicrob. Agents Chemother. 41:394-400; South (1993) Protein Sci. 2:3-19; Dannull (1994) EMBO J. 13:1525-1533). The ability of NCp7 to specifically associate with these oligonucleotides after treatment of the protein with a thiolester of the invention was tested. For example, compounds 44, 45 or 47 were very effective at inhibiting Ncp7's ability to associate with target oligonucleotide, as determined using electrophoretic mobility shift assays (EMSA) on nondenaturing polyacrylamide gels. At 1 μM, compound 45 inhibited complex formation. Compounds 44 and 47 inhibited complex formation at 100 μM (see Table 9).

[1] = target: T1, Virion-associated NCp7 proteins from cell-free HIV-1MN (Human immunodeficiency virus type 1 group M subtype B, UniProt P05888); test: Virion NCp7 cross-linking (non-reducing Western blotting)
T1 construct: attack on the mature NCp7 retroviral zinc fingers in the cell-free virus; endogenous in cells
Description: The interaction of zinc finger inhibitors, such as the thiolesters of the invention, with cell-free virus can result in modification of intravirion NCp7 protein and loss of infectivity. Virion-associated NCp7 proteins from cell-free HIV-1MN were treated with thiolester compounds 44 and 45. They were also evaluated by non-reducing Western blotting using HIV-1 NCp7-specific antibodies. […] Cross-linking by compound 45 was due to formation of intermolecular disulfide bonds because reduction with 2-mercaptoethanol (β-ME) completely reversed the gel retardation.
Virion cross linking was performed as described by Rice (1995) Science 270:1194-1197 and Turpin (1997) Antiviral Chem. Chemother. 8:60-67. Briefly, highly purified HIV-1MN (11.8 μg total protein) was incubated for 2 hour with concentrations of compound. Virions were concentrated and residual compound was removed by centrifugation (18,000×g, 1 h, 4° C.). The viral pellet was solubilized in 0.5 M Tris-HCl, (pH 6.8), 50% glycerol, 8% SDS and 0.4% bromophenol blue and proteins resolved by Western blotting. Western blotting to detect the expression of HIV-1 proteins in U1 cells or virus pellets for virion cross-linking experiments was carried out as described by Turpin (1996) J. Virol. 70:6180-6189. Briefly, 50 μg of total cellular protein for U1 experiments or the. total virion pellet (11.8 μg total viral protein) for NCp7 cross linking studies was resolved on 4 to 20% polyacrylamide gels in SDS with Tris-Glycine (Novex, San Diego Calif.). Samples for reduced gels were boiled for 5 min in the presence of 5% β-ME prior to loading. Resolved proteins were electroblotted on to polyvinylidene difluoride (PVDF) membranes, and HIV-1 specific proteins were detected using a mixture of goat anti-HIV-1 NCp7 and p24 or anti-NCp7 for virion proteins alone (a kind gift of L. E. Henderson, AIDS Vaccine Program NCI-FCRDC, Frederick, Md.). Western blots were developed using standard chemiluminescence methodologies, as produced and described by Dupont-NEN, Wilmington, Del.
Purified concentrated retrovirus and antisera against the purified NC protein of the virus can be used to test the ability of a specific compound to penetrate the virus and react with the NC protein by forming disulfide complexes in the core of the virus. Compound are mixed with the whole retrovirus under reaction conditions appropriate for the compound. The virus is then removed from the reagent by centrifugation and disrupted in, e.g., standard SDS-PAGE sample buffer with (reduced) and without (non-reduced) 2-mercaptoethanol. The viral proteins are then separated by standard SDS-PAGE and the sample examined for the presence or absence of the monomeric zinc finger protein in the non-reduced sample. Depending upon the virus used in the experiment and the conditions of electrophoresis, the zinc finger protein can be visualized by protein staining methods, or by immuno-blot methods. Compounds which react with the zinc finger protein by attacking the zinc finger complexes and forming disulfide cross-linked products inactivate the virus. Thus, compounds of interest (i.e., those which cause cross-linking), including the thiolesters of the invention, reduce the amount of monomeric zinc finger protein detected.

virus attachment = test: cell-based p24 attachment assay; design: species or system HIV-1
Description: The cell-based p24 attachment assay was performed as described in Rice (1995) Science 270:1194-1197. Viral inactivation assays were carried out as described in Rice (1995) Science 270:1194-1197, and Turpin (1997) supra, with minor modifications. Briefly, MAGI-CCR-5 cells were plated (4×10^4 cells per well) in flat bottomed 2-cm well plates for 24 h, after which the culture media was removed and compound-treated virus was added. The virus used was obtained by transient transfection of pNL4-3 into HeLa cells yielding the replication competent NL4-3 virus. Virus containing supernatants were treated for 2 h at 37° C. after which residual compound was removed by centrifugation (18,000×g, 1 h, 4° C.). Virus pellets were resuspended and placed on the MAGI-CCR-5 monolayers and cultured for 48 h. Monolayers were fixed and stained with X-gal solution and blue cells counted.

[2] = Human immunodeficiency virus 1, Table 7, high dose test 100 μM, read-out: Attachment I50

Compound | concentration at which NCp7-oligonucleotide complex formation was inhibited (NCp7) | intravirion NCp7 cross-linking (in words) [1] | inhibition of virus attachment (in words) (virus attachment) | IC50 (virus attachment; [2]) | IC50 (NCp7) | IC50 (virus attachment; Human immunodeficiency virus 1, read-out: Attachment I50)
CC(=O)NS(=O)(=O)c1ccc(NC(=O)c2ccccc2SC(=O)CCCCBr)cc1 [Compound 44, N-[2-(5-bromovaleroylthio)benzoyl]sulfacetamide] | 100 µM | very poor cross-linking agent | did not inhibit | > 100 µM |  | 
O=C(CCCC[n+]1ccccc1)Sc1ccccc1C(=O)Nc1ccc(S(=O)(=O)c2ccc([N+](=O)[O-])cc2)cc1 [Compound 47] | 100 µM | did not effectively initiate NCp7 cross-linking | did not inhibit |  | 100 µM | > 100 µM
CC(=O)NS(=O)(=O)c1ccc(NC(=O)c2ccccc2SC(=O)CCCC[n+]2ccccc2)cc1 [Compound 45, N-[2-(5-pyridinio-valeroylthio)benzoyl]sulfacetamide bromide] | 1 µM | extensive cross-linking of NCp7; also recorded: strong cross-linker of intravirion NCp7 | did not inhibit | > 100 µM |  | 
O=C(O)CCCC[n+]1ccccc1.[Br-] [Compound 53, 5-pyridiniovaleric acid] |  | Neither intravirion cross-linkage of NCp7 nor virucidal activity were detected |  |  |  | 
